# Laboratory results taken from patent US20220281848A1, “PYRAZOLE-SUBSTITUTED PYRROLIDINONES AS HERBICIDES” (FMC Corporation, priority 2019, published 2022).
# What was measured:
# plants = assay: Test D post-emergence, other plants of Tables D2 and D4; assay type: in vivo; details: for VERPE damage rating (100=total damage to plant; 0=no damage to plant): "Cereals" Postemergent, evaluated after 15 d; for damage to plant (100=total damage to plant; 0=no damage to plant), ABUTH / damage to plant (100=total damage to plant; 0=no damage to plant), AMARE / damage to plant (100=total damage to plant; 0=no damage to plant), BIDPI / damage to plant (100=total damage to plant; 0=no damage to plant), BRAPL / damage to plant (100=total damage to plant; 0=no damage to plant), CYPES / damage to plant (100=total damage to plant; 0=no damage to plant), DIGSA / damage to plant (100=total damage to plant; 0=no damage to plant), ECHCG / damage to plant (100=total damage to plant; 0=no damage to plant), ELEIN / damage to plant (100=total damage to plant; 0=no damage to plant), EPHHL / damage to plant (100=total damage to plant; 0=no damage to plant), GLXMA / damage to plant (100=total damage to plant; 0=no damage to plant), IPOHE / damage to plant (100=total damage to plant; 0=no damage to plant), ORYSA / damage to plant (100=total damage to plant; 0=no damage to plant), PANMI / damage to plant (100=total damage to plant; 0=no damage to plant), SETFA / damage to plant (100=total damage to plant; 0=no damage to plant), SORVU: post-emergence
# Method: A formulation containing 50 g/L of the test chemical was prepared by dissolving the active ingredient in a mixture of organic solvents and emulsifier, details of which are provided in the table. This formulation was then mixed with a small, variable amount of acetone to aid dissolution, before addition of a 0.2% v/v aqueous solution of an adjuvant, as the aqueous diluent, to form an aqueous spray solution which contains a predetermined concentration of the active ingredient.
# This aqueous spray solution was then sprayed onto plants including maize and wheat that had been seed treated with a herbicide safener, after one day's cultivation (for pre-emergence) or after about 12 days' cultivation (for post-emergence). The plants were grown from seeds sown in standard soil, placed in a glasshouse under controlled conditions (at 24/18° C. or 20/16° C., day/night; 16 h light; 65% humidity). After spray application the plants were then grown in a glasshouse under the same conditions and watered twice daily. After 15 d for post-emergence and 20 DAA for pre-emergence the test was evaluated (100=total damage to plant; 0=no damage to plant).
# [1] = system: barnyardgrass (Echinochloa crus-galli, ECHCG); assay: Test A pre-emergence, barnyardgrass; assay type: in vivo; details: after 13 d
# How it was run: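 Seeds sown in pots of standard soil and sprayed one day later, pre-emergence, at 15.625, 62.5 or 250 g/ha in acetone/water (50:50) with 0.5% Tween 20. Grown in glasshouse at 24/16 °C, 14 h light, 65% humidity. Damage scored after 13 d (0 none, 100 total).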
structure (smiles),measurement,setting,value
CN1CC(c2cc(C(F)(F)F)n(C)n2)C(C(=O)Nc2ccc(F)c(F)c2F)C1=O (racemic) [Compound 17],VERPE damage rating (100=total damage to plant; 0=no damage to plant),plants; Rates 130,30
same,VERPE damage rating (100=total damage to plant; 0=no damage to plant),plants; Rates 250,70
same,VERPE damage rating (100=total damage to plant; 0=no damage to plant),plants; Rates 500,60
same,"damage to plant (100=total damage to plant; 0=no damage to plant), ABUTH","plants; rate 130, evaluated after 15 d",0
same,"damage to plant (100=total damage to plant; 0=no damage to plant), ABUTH","plants; rate 250, evaluated after 15 d",0
same,"damage to plant (100=total damage to plant; 0=no damage to plant), ABUTH","plants; rate 500, evaluated after 15 d",20
same,"damage to plant (100=total damage to plant; 0=no damage to plant), AMARE","plants; rate 250, evaluated after 15 d",20
same,"damage to plant (100=total damage to plant; 0=no damage to plant), AMARE","plants; rate 500, evaluated after 15 d",40
same,"damage to plant (100=total damage to plant; 0=no damage to plant), BIDPI","plants; rate 130, evaluated after 15 d",0
same,"damage to plant (100=total damage to plant; 0=no damage to plant), BIDPI","plants; rate 250, evaluated after 15 d",0
same,"damage to plant (100=total damage to plant; 0=no damage to plant), BIDPI","plants; rate 500, evaluated after 15 d",0
same,"damage to plant (100=total damage to plant; 0=no damage to plant), BRAPL","plants; rate 130, evaluated after 15 d",70
same,"damage to plant (100=total damage to plant; 0=no damage to plant), BRAPL","plants; rate 250, evaluated after 15 d",80
same,"damage to plant (100=total damage to plant; 0=no damage to plant), BRAPL","plants; rate 500, evaluated after 15 d",80
same,"damage to plant (100=total damage to plant; 0=no damage to plant), CYPES","plants; rate 130, evaluated after 15 d",0
same,"damage to plant (100=total damage to plant; 0=no damage to plant), CYPES","plants; rate 250, evaluated after 15 d",0
same,"damage to plant (100=total damage to plant; 0=no damage to plant), CYPES","plants; rate 500, evaluated after 15 d",10
same,"damage to plant (100=total damage to plant; 0=no damage to plant), DIGSA","plants; rate 130, evaluated after 15 d",70
same,"damage to plant (100=total damage to plant; 0=no damage to plant), DIGSA","plants; rate 250, evaluated after 15 d",80
same,"damage to plant (100=total damage to plant; 0=no damage to plant), DIGSA","plants; rate 500, evaluated after 15 d",80
same,"damage to plant (100=total damage to plant; 0=no damage to plant), ECHCG","plants; rate 130, evaluated after 15 d",80
same,"damage to plant (100=total damage to plant; 0=no damage to plant), ECHCG","plants; rate 250, evaluated after 15 d",80
same,"damage to plant (100=total damage to plant; 0=no damage to plant), ECHCG","plants; rate 500, evaluated after 15 d",80
same,"damage to plant (100=total damage to plant; 0=no damage to plant), ELEIN","plants; rate 130, evaluated after 15 d",0
same,"damage to plant (100=total damage to plant; 0=no damage to plant), ELEIN","plants; rate 250, evaluated after 15 d",10
same,"damage to plant (100=total damage to plant; 0=no damage to plant), ELEIN","plants; rate 500, evaluated after 15 d",20
same,"damage to plant (100=total damage to plant; 0=no damage to plant), EPHHL","plants; rate 130, evaluated after 15 d",10
same,"damage to plant (100=total damage to plant; 0=no damage to plant), EPHHL","plants; rate 250, evaluated after 15 d",20
same,"damage to plant (100=total damage to plant; 0=no damage to plant), EPHHL","plants; rate 500, evaluated after 15 d",30
same,"damage to plant (100=total damage to plant; 0=no damage to plant), GLXMA","plants; rate 130, evaluated after 15 d",0
same,"damage to plant (100=total damage to plant; 0=no damage to plant), GLXMA","plants; rate 250, evaluated after 15 d",0
same,"damage to plant (100=total damage to plant; 0=no damage to plant), GLXMA","plants; rate 500, evaluated after 15 d",10
same,"damage to plant (100=total damage to plant; 0=no damage to plant), IPOHE","plants; rate 130, evaluated after 15 d",0
same,"damage to plant (100=total damage to plant; 0=no damage to plant), IPOHE","plants; rate 250, evaluated after 15 d",0
same,"damage to plant (100=total damage to plant; 0=no damage to plant), IPOHE","plants; rate 500, evaluated after 15 d",10
same,"damage to plant (100=total damage to plant; 0=no damage to plant), ORYSA","plants; rate 130, evaluated after 15 d",0
same,"damage to plant (100=total damage to plant; 0=no damage to plant), ORYSA","plants; rate 250, evaluated after 15 d",0
same,"damage to plant (100=total damage to plant; 0=no damage to plant), ORYSA","plants; rate 500, evaluated after 15 d",10
same,"damage to plant (100=total damage to plant; 0=no damage to plant), PANMI","plants; rate 130, evaluated after 15 d",0
same,"damage to plant (100=total damage to plant; 0=no damage to plant), PANMI","plants; rate 250, evaluated after 15 d",0
same,"damage to plant (100=total damage to plant; 0=no damage to plant), PANMI","plants; rate 500, evaluated after 15 d",0
same,"damage to plant (100=total damage to plant; 0=no damage to plant), SETFA","plants; rate 130, evaluated after 15 d",60
same,"damage to plant (100=total damage to plant; 0=no damage to plant), SETFA","plants; rate 250, evaluated after 15 d",70
same,"damage to plant (100=total damage to plant; 0=no damage to plant), SETFA","plants; rate 500, evaluated after 15 d",70
same,"damage to plant (100=total damage to plant; 0=no damage to plant), SORVU","plants; rate 130, evaluated after 15 d",0
same,"damage to plant (100=total damage to plant; 0=no damage to plant), SORVU","plants; rate 250, evaluated after 15 d",0
same,"damage to plant (100=total damage to plant; 0=no damage to plant), SORVU","plants; rate 500, evaluated after 15 d",0
same,damage to plant (100=total damage; 0=no damage) ECHCG,[1]; Pre-Emergence at 15.625 g/ha,90
same,damage to plant (100=total damage; 0=no damage) ECHCG,[1]; Pre-Emergence at 62.5 g/ha,100
same,damage to plant (100=total damage; 0=no damage) ECHCG,[1]; Pre-Emergence at 250 g/ha,100
